# Entries after “also recorded” stand apart in the source; their conditions may differ.
# What was measured:
# [1] = Reaction with MDA salt in glyceryl trioleate / Captisol-PBS / linoleic acid, monitored by LC/MS; conditions: 0.064 mmol compound and MDA, ambient temperature
# Description: To five separate reaction vials was added Compounds 1, 2, 12, 14, and 16, respectively (0.064 mmol), MDA salt (22.7% MDA, 0.064 mmol), and glyceryl trioleate (600 mg). To the mixture was added 20 wt % Capitsol in aqueous PBS (˜2.5 ml), followed by linoleic acid (600 mg). The reaction mixture was stirred vigorously at ambient temperature and monitored by LC/MS. […] Other MDA adducts were also formed at different time points of the reactions.
# allergic dermatitis = test: Allergic dermatitis, oxazolone (OXL) model, pinna thickness; assay type: in vivo, mice; conditions: single dose 100 mg/kg intraperitoneally, FIG. 5B
# Description: To measure the efficacy of Compound 9 in treating allergic dermatitis, oxazolone (“OXL”) was applied (1.5%, 100 μL in acetone) to the shaved abdomens of mice. Seven days later, the thickness of the pinna of the OXL treated mice was determined. Then Compound 9 (100 mg/kg) or the vehicle (i.e., Captisol) was administered intraperitoneally to mice followed by topical application of OXL (1%, 20 μL) 30 min later to both the anterior and posterior portions of the right pinna. As a control, the left pinna received 20 μL of acetone (OXL excipient) to both the anterior and posterior portions. The thickness of the pinna of both ears was measured again 24 hours later. N=10 per group.
# [2] = Aldehyde trapping (FIG. 1), MDA
# [3] = test system: radiation induced fibrosis; test: Radiation induced fibrosis after 40 Gy irradiation; assay type: in vivo; conditions: hamsters subject to 40 Gy irradiation; FIG. 7
# contact dermatitis = test: Contact dermatitis, phorbol myristate acetate (PMA) model, pinna thickness; assay type: in vivo, mice; conditions: single dose, FIG. 5A
# Description: To determine the efficacy of Compound 9 in treating contact dermatitis, phorbol myristate acetate (“PMA”) was applied topically (2.5 μg in 20 μL) to both the anterior and posterior portions of the right pinna of mice (N=10 per group). As a control, the left pinna received 20 μL of ethanol (PMA excipient) to both the anterior and posterior portions. Six hours after the PMA application, both the right and left pinna thickness was determined. Measurements were determined at least twice from the same region of both ears, with care taken not to include hair or folded pinna.
# circulating cytokines = test: LPS exposure in mice, ELISA of circulating cytokines; assay type: in vivo, Male C57BI/6 mice; conditions: single dose 30 minutes before LPS (20 mg/kg), blood two hours after LPS
# Description: Male C57BI/6 mice were dosed with Compound 9 30 minutes before they were exposed to LPS (20 mg/kg). Two hours after the LPS exposure, blood was collected from the mice and an ELISA was conducted to determine the amount of circulating cytokines.
# [4] = Aldehyde trapping (FIG. 1), HNE
# [5] = test system: Primary rat cortical cultures; test: LDH assay in primary rat cortical cultures; assay type: cell-based; conditions: 24 or 48 hours, various concentrations; FIG. 2
# Description: Primary rat cortical cultures were placed in an incubator for 24 or 48 hours and treated with various concentrations of Compound 9. Then 20 μL of the culture media was removed for an LDH assay as described in Bergmeyer et al., Methods of Enzymatic Analysis, 3rd ed. (1983).
# [6] = in the presence of peptides and phospholipids
SMILES,form of the MDA adducts [1],reaction with MDA / trapping of MDA (formation of MDA adducts) [1],other results
"CC(C)(O)c1c(N)cnc2ccc(Cl)c(F)c12 [Compound 1, 2-(3-amino-6-chloro-5-fluoroquinolin-4-yl)propan-2-ol]",a majority of the adducts were bis-oxaminal,quickly react with MDA to form MDA adducts; also recorded: reacts and traps MDA,
"CC(C)(O)c1c(N)cnc2ccc(Cl)cc12 [Compound 2, 2-(3-amino-6-chloroquinolin-4-yl)propan-2-ol]",,quickly react with MDA to form MDA adducts; also recorded: reacts and traps MDA,
CC(C)(O)c1nc2ccc(Cl)cc2cc1N [Compound 9],in both the imine form and the oxaminal form,reacted with MDA and formed MDA adducts; also recorded: reacts and traps MDA,"efficacy against allergic dermatitis (allergic dermatitis): effective; reaction with and trapping of MDA ([2]; FIG. 1): rapidly reacts with and traps; also recorded: decrease aldehyde (e.g., MDA and HNE) concentration in a time-dependent manner; trapping of MDA [2, 6]: rapidly traps MDA and HNE; radiation induced fibrosis [3]: diminishes radiation induced fibrosis; efficacy against contact dermatitis (contact dermatitis): effective; other chemokines, such as eotaxin, IL-12, IP-10, LIF, MCP-1, MIG, MIP, and RANTES (circulating cytokines): decreased; anti-inflammatory cytokines, such as IL-10 (circulating cytokines; FIG. 4): elevated; proinflammatory cytokines, such as IL-5 and IL-1β, IL-17, and TNF (circulating cytokines; FIGS. 3 and 4): broad downregulation; also recorded: reduction; reaction with and trapping of HNE ([4]; FIG. 1): rapidly reacts with and traps; also recorded: decrease aldehyde (e.g., MDA and HNE) concentration in a time-dependent manner; trapping of HNE [4, 6]: rapidly traps MDA and HNE; aldehyde-mediated cell death in neurons (LDH assay) [5]: prevented aldehyde-mediated cell death in neurons"
"Cc1ccc(-c2nc3cc(N)c(C(C)(C)O)c(Cl)c3o2)cc1 [Compound 12, 2-(5-amino-7-chloro-2-p-tolylbenzoxazol-6-yl)propan-2-ol]",a majority of the adducts were bis-oxaminal,quickly react with MDA to form MDA adducts; also recorded: reacts and traps MDA,
"CC(C)(O)c1c(N)cc2onc(C3CC3)c2c1Cl [Compound 14, 2-(6-amino-4-chloro-3-cyclopropylbenzisoxazol-5-yl)propan-2-ol]",a majority of the adducts were bis-oxaminal,quickly react with MDA to form MDA adducts; also recorded: reacts and traps MDA,
"CC(C)(O)c1c(N)cc(Cl)c2c(C3CC3)noc12 [Compound 16, 2-(6-amino-4-chloro-3-cyclopropylbenzisoxazol-7-yl)propan-2-ol]",a majority of the adducts were bis-oxaminal,quickly react with MDA to form MDA adducts; also recorded: reacts and traps MDA,
